Assay results as given in PMC7181695, “Targeting the interaction between RNA-binding protein HuR and FOXQ1 suppresses breast cancer invasion and metastasis” (Communications Biology, 2020).

Target: T1, HuR (Hu antigen R, ELAVL1) (Homo sapiens, UniProt Q15717)
T1 construct: full-length HuR (FP, SPR); HuR RRM1/2 (AlphaLISA, SPR)
Experiment: FP competition with fluorescein-labeled ARE-Msi1 RNA; SPR direct binding to immobilized HuR; AlphaLISA (Ki […]); CETSA in MDA-MB-231 cells

T1 sequence (Q15717 2-326): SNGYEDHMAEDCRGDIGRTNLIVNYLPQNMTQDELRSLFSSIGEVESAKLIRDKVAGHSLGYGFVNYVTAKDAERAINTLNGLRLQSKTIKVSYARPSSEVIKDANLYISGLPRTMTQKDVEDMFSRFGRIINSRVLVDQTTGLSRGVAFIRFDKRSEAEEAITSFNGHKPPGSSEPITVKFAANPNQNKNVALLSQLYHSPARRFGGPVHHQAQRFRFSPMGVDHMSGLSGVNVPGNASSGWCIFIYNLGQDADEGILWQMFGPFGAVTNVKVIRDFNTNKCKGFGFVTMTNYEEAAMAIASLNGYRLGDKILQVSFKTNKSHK

In the case of `CC(C)(C)c1ccc(S(=O)(=O)Nc2ccc3sc(/C=C/C(=O)NO)cc3c2)cc1` [KH-3, (E)-3-(5-((4-(tert-Butyl)phenyl)sulfonamido)benzo[b]thiophen-2-yl)-N-hydroxyacrylamide], the Ki is reported as 830 nM.
